In US9937194B1, “Compounds and methods for treating inflammatory diseases” (priority 2009, dated 2018):

What was measured:
HDAC2 = settings: reduced by oxidative stress; cited from earlier work
A/J mice exposed to LPS = assay: Anti-inflammatory activity in vivo: A/J mice exposed to LPS intranasally; settings: intranasal, 1 hr before LPS challenge
MMP9 = settings: macrophages in sputum of COPD patients; cited from earlier work
TNFα = assay: LPS-induced TNFα release in PMA-differentiated U937 cells (ELISA); format: cell-based, human; settings: LPS 100 ng/ml 4 hrs
Outline: (§1)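 PMA-differentiated U937 macrophage-like cells were pretreated with compound for 1 hr, then stimulated with LPS (100 ng/ml) for 4 hrs. Released IL-8 and TNFα were quantified by sandwich ELISA. Values are means of three experiments ± SEM.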

IL-8 = assay: LPS-induced IL-8 release in PMA-differentiated U937 cells (ELISA); format: cell-based, human; settings: LPS 100 ng/ml 4 hrs
Outline: as §1

U937 cells [1] = assay: H2O2-induced steroid insensitivity in U937 cells (dexamethasone IC50 on TNFα-induced IL-8); format: cell-based, human; settings: highest concentration tested (100 μM); H2O2 200 μM
Procedure: Cytokine ELISA. LPS-induced IL-8, TNFα concentrations and TNFα-induced IL-8 concentrations are determined by sandwich ELISA according to the manufacturer's instructions (R&D Systems Europe). IC50 values for dexamethasone on IL-8 production are calculated using the computer program Prism 4.0 (GraphPad Software Inc., San Diego, Calif.) as a marker for steroid sensitivity.
Restoration of steroid sensitivity. U937 cells: U937 are treated with oxidative stress (H2O2, 200 μM or 0.15 dilution CSM (cigarette smoke conditioned medium)) and 4 hours later, stimulated with TNFα (10 ng/ml) in the presence of dexamethasone (10^−11-10^−6M). Supernatant and cells are collected 24 hrs after stimulation and IL-8 is measured by conventional ELISA. As the index of corticosteroid sensitivity, IC50 of dexamethasone is calculated. Test compounds are treated 20 min before oxidative stress treatment.
Effects of compounds on H2O2-induced steroid insensitivity in U937 cells. Cells stimulated with H2O2 (200 μM) overnight are incubated with compounds described herein for 30 min under H2O2 (200 μM) exposure. The cells are treated with dexamethasone (10^−11 to 10^−6 M) for 20 min, followed by the TNFα stimulation overnight. TNFα-induced IL-8 release is evaluated by ELISA and IC50 values for dexamethasone on IL-8 production are calculated using Prism. Data are expressed as fold changes against positive control treated with H2O2 only. Values represent means of four experiments±SEM. H2O2 exposure reduces dexamethasone sensitivity by approximately 4 fold based on calculated IC50 values of TNFα-induced IL-8 production.

Akt = assay: H2O2-induced phosphorylation of Akt in PMA-differentiated U937 cells (western blot); format: cell-based, human; settings: PMA-differentiated U937; H2O2 1 mM 30 min
Outline: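 PMA-differentiated U937 macrophage-like cells pretreated with compound 20 min, then stimulated with 1 mM H2O2 for 30 min. pAkt measured by western blot densitometry, normalised to total protein and expressed as fold change versus H2O2-only control; mean ± SEM of 3–4 experiments.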

PBMCs from COPD patients = settings: PBMCs obtained from COPD patients; cited from earlier work
HDAC2 mRNA = assay: Cigarette smoke extract-induced reduction of HDAC2 mRNA in A549 cells; format: cell-based, human; settings: A549; CSE
Procedure: Preparations of cigarette smoke extract. To prepare the cigarette smoke extract, two full-strength Marlboro cigarettes (filters removed; Phillip Morris USA, Richmond, Va.) are combusted through a modified 60-ml syringe apparatus, and the smoke passed through 20 ml of DMEM medium. Each cigarette generally yields five draws of the syringe (to the 60-ml mark), with each individual draw taking approximately 10 s to complete. Cigarette smoke extract is then passed through a 0.20-μm filter to sterilize and remove particulate matter and is used immediately unless otherwise stated.
Quantitative RT-PCR. Total RNA extraction and reverse transcription are performed using an RNeasy kit (QIAGEN, Crawley, UK) and a High-Capacity cDNA Reverse Transcription Kits (Applied Biosystems, Foster City, Calif.). Gene transcript level of HDAC2 (HS00231032_M1, Applied Biosystems, California, USA) and the house-keeping gene, guanine nucleotide binding protein beta polypeptide-2-like 1 (GNB2L1) (HS00272002_M1, Applied Biosystems) are quantified by real-time PCR using a TaqMan® Gene Expression Master Mix (Applied Biosystems) on a Rotor-Gene 6000 (Corbett Research, Cambridge, UK). Transcripts are analysed by the delta (D) CT method and variations in cDNA concentrations between different samples were corrected using GNB2L1.
Effects of macrolides on cigarette smoke extract-induced (CSE-induced) reduction of HDAC2 mRNA in A549 cells. Cells pretreated with compounds described herein for 30 min are exposed to CSE (0.15 O.D.) for 1 hr. The cells are washed twice and incubated with medium only for 4 hrs. Data are expressed as % reduction from baseline (left) or % increase from baseline under H2O2. Values represent means of three experiments±SEM. Example 33 reverses cigarette smoke extract-induced (CSE-induced) reduction of HDAC2 mRNA expression in A549 cells at concentrations of about 10 μM or greater, and with statistical significance of p<0.05 versus treatment with CSE only (one-way ANOVA with post hoc test, n=3) at doses of about 30 μM or greater.

U937 cells [2] = settings: H2O2-induced insensitivity on TNF-α-induced IL-8 production; cited from earlier work
HDAC activity = assay: H2O2-induced reduction of HDAC activity in PMA-differentiated U937 cells; format: cell-based, human; settings: PMA-differentiated U937
Outline: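 U937 cells PMA-differentiated for 3 days, pretreated with compound for 20 min, then exposed to 200 μM H2O2 for 4 h with Fluor de Lys substrate present. Whole-cell HDAC activity measured fluorimetrically. Data expressed as fold change versus H2O2-only control, mean of four experiments ± SEM.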

CC[C@H]1OC(=O)[C@H](C)[C@@H](O[C@H]2C[C@@](C)(OC)[C@@H](O)[C@H](C)O2)[C@H](C)[C@@H](O[C@@H]2O[C@H](C)C[C@H](N(C)C)[C@H]2O)[C@](C)(O)C[C@@H](C)C(=O)[C@H](C)[C@@H](O)[C@]1(C)O [ERY, erythromycin]
HDAC2 promoter activity and protein expression (reported) (HDAC2): restore HDAC2 promoter activity and protein expression | anti-inflammatory action in LPS-exposed A/J mice (A/J mice exposed to LPS): have anti-inflammatory action | MMP9 expression (reported) (MMP9): inhibited MMP9 expression | inhibition of LPS-induced TNFα release compared with Example 33 (TNFα): did not show any inhibition at any concentration tested | inhibition of LPS-induced IL-8 release compared with Example 33 (IL-8): did not show any inhibition at any concentration tested | restoration of dexamethasone sensitivity (U937 cells [1]): None of ERY, CLR, or AZI restored dexamethasone sensitivity | inhibition of Akt phosphorylation compared with Example 33 (Akt): at comparable concentrations | restoration of corticosteroid sensitivity (reported) (PBMCs from COPD patients): restore corticosteroid sensitivity | reversal of HDAC mRNA expression reduction compared with Example 33 (HDAC2 mRNA): only at much higher doses than Example 33 | restoration of corticosteroid sensitivity (reported) (U937 cells [2]): restore corticosteroid sensitivity | restoration of HDAC activity compared with Example 33 (HDAC activity; H2O2 200 μM 4 hrs): only at much higher doses than Example 33 | HDAC activity reached compared with untreated controls (HDAC activity; H2O2 200 μM, comparators at highest doses tested): only restore HDAC activity to levels comparable to untreated controls
